Results on 2 molecules are retold here after patent US8735620B2, “Processes for preparing (E)-styrylbenzylsulfone compounds and uses thereof for treating proliferative disorders” (priority 2008, dated 2014).

pIC50: −log10 of the molar value.

In one data set the test system is bone marrow cells. The data set can be described thus: Bone marrow harvest and colony formation assay. It is filed as in vivo, CD-1 mice. The following applies: 100 mg/kg intravenously, 12, 24 and 48 h after injection. On the procedure: FIG. 4 Bone marrow toxicity profile of 6ab. To assess the toxicity of 6ab, the phosphate salt of the drug was injected into mice (100 mg/Kg) and bone marrow harvested from femur and tibia after 12, 24 and […] following the injection of the drug. The bone marrow cells were cultured in methylcellulose medium supplemented with a mixture of stem cell factor, GM-CSF, IL-3 and erythropoietin for one week and colony forming units were determined.
Bone marrow was harvested from femur and tibia of CD-1 mice injected with 200 μL of PBS or 6ab [10 mg/mL:100 mg/kg dose] at 12, 24, or 48 h before the sacrifice. The bone marrow cells were cultured in Methylcellulose medium supplemented with 50 ng/mL rmStem Cell Factor, 10 ng/mL rmIL-3, 10 ng/mL rh IL-6, 200 μg/mL human Transfeffin, and 3 units/mL rhErythropoietin (Stem Cell Technologies, Vancouver, BC, Canada). Cultures were seeded in duplicates using 35 mm plastic petri dishes and colony forming units were determined after one week.

A further data set concerns A549. Briefly: Tumor cell killing, A549. The format is cell-based, human. As to conditions: A549, NSCLC; read-out: Tumor cell killing (IC50) concentration.
The subject of a further data set is H187. The data set can be described thus: Tumor cell killing, H187. The format is cell-based, human. As to conditions: H187, SCLC; read-out: Tumor cell killing (IC50) concentration.
Data set [1] relates to DU145 (prostate cancer) cells. The data set can be described thus: Cell cycle analysis by flow cytometry, tumor cells. The format is cell-based, human. The following applies: DU145, 20 nM, 24 hr intervals. On the procedure:
(§1) FIG. 2 Preferential tumor cell killing activity of 6aa. A. Cell Cycle analyses. Normal (HUVEC) and tumor cells (DU145) were treated with 20 nM concentration of 6aa and incubated in medium containing 10% fetal bovine serum. At 24 hr intervals, the cells were fixed, stained with propidium iodide and analyzed for their DNA content by flow Cytometry. B. Induction of apoptosis in normal (HUVEC) and tumor cells (DU145) was assessed by western blot analysis of cell lysates treated with 6aa for 24, 48 and 72 h. The Western blots were probed with anti-PARP antibodies to assess the cleavage of the protein.
Human prostate tumor cells, DU145 cells, and normal diploid human lung fibroblasts, HFL-1 cells, were grown in DMEM (Cellgro) supplemented with 10% fetal bovine serum and 1 unit/mL penicillin-streptomycin. The cells were plated onto 100 mm^2 dishes at a cell density of 1.0×10^6 cells/dish, and 24 h later, they were treated with 2.5 μM of the compound. The cells were harvested 24, 48 and 72 h after treatment. The cells were removed from the plate by trypsin digestion and combined with the non-attached cells found in the medium. The cell pellets were washed in phosphate buffered saline (PBS), and fixed in ice cold 70% ethanol for at least 24 h. […] The stained cells were then analyzed on a Becton-Dickinson (BD) (FACScan) flow cytometer and the data analyzed by cell cycle analysis software (Modfit, BD).
(Flow cytometry measures light scatter and fluorescence of single cells or particles in a stream.)

A further data set deals with MIA-PaCa-2 cells. The data set can be described thus: Soft agar colony formation, MIA-PaCa-2. The format is cell-based, human. As to conditions: MIA-PaCa-2, dose dependent, three weeks. On the procedure:
FIG. 1 Anti-tumor effects of (E)-2,4,6-Trimethoxystyryl-3-Hydroxy-4-Methoxybenzyl Sulfone (6aa). A. 6aa inhibits the growth of parental (MES-SA) and Paclitaxel resistant (MES-SA/DX5) cell lines with equal efficiency. The parental uterine sarcoma cells and the MDR positive (MES-SA/DX5) cells were plated into 6 well dishes and treated with various concentrations of 6aa and Paclitaxel for 96 h. The number of viable cells from duplicate plates was determined by trypan blue exclusion. B. Soft Agar Assays. MIA-PaCa-2 cells (1.0×10^5) were plated in soft agar containing various concentrations of each compound in triplicates. After three weeks of growth, the plates were stained for 48 h using 0.05% nitroblue tetrazolium solution. Representative plates were photographed using an Olympus stereoscope mounted with a Sony digital camera system (DKC5000, Sony Inc).
The soft agar plates were prepared as described by Cosenza, et al (Cosenza, S. C. et al. In Cell Growth, Differentiation and Senescence, Studzinski, G. P., Ed.; Oxford University Press: 1999, 161-176.). Briefly, Noble bottom agar (0.8%) was plated onto 60 mm tissue culture plates. Exponentially growing MIA-PaCa-2 cells (1.0×10^5) were mixed with growth medium with various concentrations of each compound and mixed with Noble agar to a final concentration of 0.4%. Each concentration was plated in triplicate. The top agar was allowed to solidify and the plates were then incubated at 5% CO2 at 37° C. for 3 weeks. The plates were then stained with 0.05% nitroblue tetrazolium (NBT) solution and representative plates were photographed using an Olympus stereoscope mounted with a Sony digital camera system (DKC5000, Sony Inc).

A further data set has as its system 2008. The data set can be described thus: Tumor cell killing, 2008. As to conditions: 2008, Ovarian; read-out: Tumor cell killing (IC50) concentration. It is filed as cell-based, human. Here is the method: (§2) Tissue Culture and Reagents: Paclitaxel was purchased from Sigma. Cell lines were purchased from ATCC. Cell lines were routinely grown in DMEM or RPM1 (CellGro) supplemented with 10% fetal bovine serum (Atlas) and 1 unit/mL penicillin-streptomycin (Gibco).
(§3) A number of tumor cell lines were tested using a dose response end point assay system. The cells were grown in either DMEM or RPMI supplemented with 10% fetal bovine serum and 1 unit/mL Penicillin-Streptomycin solution. The tumor cells were plated into 6 well dishes at a cell density of 1.0×10^5 cells/mL/well and compounds were added 24 h later at various concentrations. Cell counts were determined from duplicate wells after 96 h of treatment. The total number of viable cells was determined by trypan blue exclusion.

For another data set, the system named is RF48. Briefly: Tumor cell killing, RF48. The format is cell-based, human. As to conditions: RF48, GASTRIC; read-out: Tumor cell killing (IC50) concentration.
A further data set concerns HUVEC. Briefly: PARP cleavage western blot, normal cells. As to conditions: HUVEC, 24, 48 and 72 h. It is filed as cell-based, human. On the procedure: as §1
BT20 cells were plated at a density of 3.0×10^6 cells per 150 mm^2 plate and treated 24 h later with either DMSO or 6aa. The cells were collected at the indicated time points and cell pellets were frozen. The frozen cell pellets were lysed in 1% NP40/PBS lysis buffer containing protease inhibitors. Equal amounts of total cellular protein was then resolved on a 10%-SDS-polyacrylamide gel. The gels were transferred onto nitrocellulose paper (S/S), hybridized with anti-PARP antibodies (BD) and developed using ECL (Perkin-Elmer, MA) solution.
For orientation: A western blot detects proteins with antibodies after separation by electrophoresis.

The subject of the next data set is U87. The data set can be described thus: Tumor cell killing, U87. The following applies: U87, GLIOBLASTOMA; read-out: Tumor cell killing (IC50) concentration. The format is cell-based, human.
The test system of the next data set is K562. Briefly: Tumor cell killing, K562. The following applies: K562, CML; read-out: Tumor cell killing (IC50) concentration. It is filed as cell-based, human. On the procedure: as §2, §3

Regarding `COc1cc(OC)c(/C=C/S(=O)(=O)Cc2ccc(OC)c(O)c2)c(OC)c1` [6aa, (E)-2,4,6-Trimethoxystyryl-3-Hydroxy-4-Methoxybenzyl Sulfone], in the data set on bone marrow cells, the “in vitro hematopoietic colony formation of bone marrow cells” value is “no reduction in total, myeloid or lymphoid colony formation”. Further, the pIC50 was 8.00 with A549; 8.15 with H187; 8.30 in the data set with 2008; 8.30 in the data set on RF48; 8.15 in the data set on U87; 8.40 in the data set on K562. Moreover, in data set [1], the “effect on cell cycle progression” value is reported as “gradually accumulated in the G2/M phase”. Also, the “growth of tumor cells in soft agar” value with MIA-PaCa-2 cells is recorded as “complete inhibition of the growth of tumor cells”. In addition, the PARP cleavage entry with HUVEC is listed as “No PARP cleavage was observed”.
Take `COc1ccc(CS(=O)(=O)/C=C/c2c(OC)cc(OC)cc2OC)cc1` [6s, (E)-2,4,6-Trimethoxystyryl-4-Methoxybenzyl sulfone]: the pIC50 in the data set with A549 was 7.70; in the data set on H187 it was 7.82; with RF48 it was 8.00; in the data set on U87 it was 7.40.
